# In EP0431323A1, “Antitumor antibiotic BU-3983T” (priority 1989, dated 1991):
# Numbered stars: 1 amine (or outer) side, 2 acyl side, 3 side chain; on linkers, the order of the positions; unused ones are H or OH. Bridge positions count the residues as written; N and C are the ends. Square brackets hold non-standard residues; d marks the D form. Peptide text beside a SMILES is read from it. I, II: the chains in the order shown. * marks the point of attachment. Actinocin(9to1) = Cc1c2oc3c(C)ccc(C(=O)[*:1])c3nc-2c(C(=O)[*:2])c(N)c1=O; Leu(3R-OH,Nα-propionyl) = CCC(=O)N[C@H](C(=O)*)[C@H](O)C(C)C; X1 = CC(C)[C@@H](O[*:3])[C@H](N[*:1])C(=O)[*:2]; NMeT = CN[C@H](C(=O)O)[C@@H](C)O; dPhLac = O=C(O)[C@H](O)Cc1ccccc1; NMeV = CN[C@H](C(=O)O)C(C)C; NMeA = CN[C@@H](C)C(=O)O; NMeDha = C=C(NC)C(=O)O; Sar = CNCC(=O)O
# Key:
# P388 leukemia = experiment: In vivo antitumor activity in tumor-bearing mice, P388 leukemia (ip); settings: P388 leukemia ip, CDF₁ mice, Q1D x 1; for T/C: significant if T/C ≧ 125%
# Protocol: (§1) In vivo antitumor activity of BU-3983T was examined using tumor-bearing mice. Male BDF₁ mice were intraperitoneally inoculated with 0.5 ml of 10% melanotic melanoma B16 brei, and female CDF₁ mice were intraperitoneally inoculated with 0.4 ml of diluted ascitic fluid containing 10⁶ lymphocytic leukemia P388 cells or 10⁵ lymphoid leukemia L1210 cells. Mitomycin C was used as a reference compound. Test compounds were intraperitoneally administered to the mice by the following treatment schedules: once a day on day 1 only (Q1D x 1), on days 1, 5 and 9 (Q4D x 3) or on days 1 to 9 (Q1D x 9). […]
# B16 melanoma = experiment: In vivo antitumor activity in tumor-bearing mice, B16 melanoma (ip); settings: B16 melanoma ip, BDF₁ mice, Q4D x 3; for T/C: significant if T/C ≧ 125%
# Protocol: as §1
# L1210 leukemia = experiment: In vivo antitumor activity in tumor-bearing mice, L1210 leukemia (ip); settings: L1210 leukemia ip, CDF₁ mice, Q1D x 1; for T/C: significant if T/C ≧ 125%
# Protocol: as §1
# [1] = test system: Gram-positive microorganisms; settings: Maehr, et al, J. Antibiotics, 39, 17 (1986); cited from earlier work
# Gram-negative bacteria = settings: Sheehan et al, J. Am. Chem. Soc., 90, 462 (1968); cited from earlier work
# Gram-positive organism = settings: Sheehan et al, J. Am. Chem. Soc., 90, 462 (1968); cited from earlier work
# [2] = test system: DNA synthesis in B16-F10 melanoma cells; experiment: Inhibition of macromolecule synthesis: DNA (3H-thymidine incorporation); type: cell-based, murine; settings: Mus musculus, 4.5 hours + 30 minutes label, read-out: IC₅₀ DNA
# Protocol: (§2) B16-F10 cells (10⁵ cells/ml) were incubated with test materials at 37°C for 4.5 hours (for DNA synthesis) or 4 hours (for RNA and protein syntheses). Labelled precursor, ³H-thymidine, ¹⁴C-uridine or ³H-leucine was added to the culture and further incubated for 30 minutes (for DNA) or 60 minutes (for RNA and protein). After washing with chilled 5% trichloroacetic acid solution, the radioactivity incorporated into the acid-insoluble fraction of the tumor cells was determined by a liquid scintillation counter. Actinomycin D was used as a reference compound.
# [3] = test system: Protein synthesis in B16-F10 melanoma cells; experiment: Inhibition of macromolecule synthesis: protein (3H-leucine incorporation); type: cell-based, murine; settings: Mus musculus, 4 hours + 60 minutes label, read-out: IC₅₀ Protein
# Protocol: as §2
# [4] = test system: RNA synthesis in B16-F10 melanoma cells; experiment: Inhibition of macromolecule synthesis: RNA (14C-uridine incorporation); type: cell-based, murine; settings: Mus musculus, 4 hours + 60 minutes label, read-out: IC₅₀ RNA
# Protocol: as §2
# platelet aggregation = settings: Fujioka, et al, J. Org. Chem. 53, 2820 (1988); cited from earlier work
# [5] = Fujioka, et al, J. Org. Chem. 53, 2820 (1988); cited from earlier work
compound,measurement,setting,value
"CO[C@@]12[C@H](COC(N)=O)C3=C(C(=O)C(C)=C(N)C3=O)N1C[C@@H]1N[C@@H]12 [Mitomycin C, reference compound]",Body weight change on day 4,P388 leukemia; 0.25 mg/kg/day ip,+1.0 g
same,MST (Median survival time),P388 leukemia; 0.25 mg/kg/day ip,11.5 days
same,T/C,P388 leukemia; 0.25 mg/kg/day ip,115%
same,Body weight change on day 4,P388 leukemia; 0.5 mg/kg/day ip,+1.5 g
same,MST (Median survival time),P388 leukemia; 0.5 mg/kg/day ip,13.0 days
same,T/C,P388 leukemia; 0.5 mg/kg/day ip,130*² %
same,Body weight change on day 4,P388 leukemia; 1 mg/kg/day ip,+2.0 g
same,MST (Median survival time),P388 leukemia; 1 mg/kg/day ip,14.0 days
same,T/C,P388 leukemia; 1 mg/kg/day ip,140*² %
same,Body weight change on day 4,P388 leukemia; 2 mg/kg/day ip,+0.5 g
same,MST (Median survival time),P388 leukemia; 2 mg/kg/day ip,15.5 days
same,T/C,P388 leukemia; 2 mg/kg/day ip,155*² %
same,Body weight change on day 4,P388 leukemia; 4 mg/kg/day ip,-0.8 g
same,MST (Median survival time),P388 leukemia; 4 mg/kg/day ip,16.5 days
same,T/C,P388 leukemia; 4 mg/kg/day ip,165*² %
same,Body weight change on day 5,B16 melanoma; 0.25 mg/kg/day ip,+0.8 g
same,MST (Median survival time),B16 melanoma; 0.25 mg/kg/day ip,15.5 days
same,T/C,B16 melanoma; 0.25 mg/kg/day ip,119%
same,Body weight change on day 5,B16 melanoma; 0.5 mg/kg/day ip,+0.6 g
same,MST (Median survival time),B16 melanoma; 0.5 mg/kg/day ip,18.0 days
same,T/C,B16 melanoma; 0.5 mg/kg/day ip,138*² %
same,Body weight change on day 5,B16 melanoma; 1 mg/kg/day ip,+0.8 g
same,MST (Median survival time),B16 melanoma; 1 mg/kg/day ip,22.0 days
same,T/C,B16 melanoma; 1 mg/kg/day ip,169*² %
same,Body weight change on day 5,B16 melanoma; 2 mg/kg/day ip,+0.5 g
same,MST (Median survival time),B16 melanoma; 2 mg/kg/day ip,27.5 days
same,T/C,B16 melanoma; 2 mg/kg/day ip,212*² %
same,Body weight change on day 4,L1210 leukemia; 0.5 mg/kg/day ip,+1.5 g
same,MST (Median survival time),L1210 leukemia; 0.5 mg/kg/day ip,10.0 days
same,T/C,L1210 leukemia; 0.5 mg/kg/day ip,125*² %
same,Body weight change on day 4,L1210 leukemia; 1 mg/kg/day ip,+1.5 g
same,MST (Median survival time),L1210 leukemia; 1 mg/kg/day ip,10.0 days
same,T/C,L1210 leukemia; 1 mg/kg/day ip,125*² %
same,Body weight change on day 4,L1210 leukemia; 2 mg/kg/day ip,+1.0 g
same,MST (Median survival time),L1210 leukemia; 2 mg/kg/day ip,10.5 days
same,T/C,L1210 leukemia; 2 mg/kg/day ip,131*² %
same,Body weight change on day 4,L1210 leukemia; 4 mg/kg/day ip,+0.5 g
same,MST (Median survival time),L1210 leukemia; 4 mg/kg/day ip,11.0 days
same,T/C,L1210 leukemia; 4 mg/kg/day ip,138*² %
same,Body weight change on day 4,L1210 leukemia; 8 mg/kg/day ip,-0.3 g
same,MST (Median survival time),L1210 leukemia; 8 mg/kg/day ip,12.5 days
same,T/C,L1210 leukemia; 8 mg/kg/day ip,156*² %
C/C=C(\C)C(=O)[C@@H](/C=C(\C)[C@@H]1O[C@@](O)([C@](O)(CC)C(=O)N[C@@H]2C(=O)N3NCCC[C@H]3C(=O)N(O)[C@H](COC)C(=O)N(C)[C@H](C)C(=O)N3NCCC[C@@H]3C(=O)N[C@@H]([C@H](C)O)C(=O)O[C@@H]2C(C)C)CC[C@H]1C)CC [azinothricin],activity against Gram-positive microorganisms,[1],primarily active
Telomycin,effect against most Gram-negative bacteria,Gram-negative bacteria,little or no effect
same,activity against Gram-positive organism,Gram-positive organism,active
"Cc1c2oc3c(C)ccc(C(=O)N[C@@H]4C(=O)N[C@H](C(C)C)C(=O)N5CCC[C@H]5C(=O)N(C)CC(=O)N(C)[C@@H](C(C)C)C(=O)O[C@@H]4C)c3nc-2c(C(=O)N[C@@H]2C(=O)N[C@H](C(C)C)C(=O)N3CCC[C@H]3C(=O)N(C)CC(=O)N(C)[C@@H](C(C)C)C(=O)O[C@@H]2C)c(N)c1=O [Actinomycin D, reference compound] (I: T[dV]P[Sar][NMeV] / II: T[dV]P[Sar][NMeV]; ester I:1-I:C, II:1-II:C; linker I:N-II:N via Actinocin(9to1))",IC50,[2],1.3 µg/mL
same,IC50,[3],> 30 µg/mL
same,IC50,[4],0.07 µg/mL
"C=C1C(=O)N[C@@H](C)C(=O)N(C)[C@@H](C)C(=O)N[C@@H]([C@H](OC(=O)[C@@H](NC(=O)CC)[C@H](O)C(C)C)C(C)C)C(=O)N(C)[C@@H]([C@@H](C)OC)C(=O)O[C@H](C(C)C)[C@H](NC(C)=O)C(=O)O[C@H](Cc2ccccc2)C(=O)N1C [FR900359] (Ac-[X1][dPhLac][NMeDha]A[NMeA][X1](Leu(3R-OH,Nα-propionyl))[NMeT](Me); ester 1-C)",inhibition of platelet aggregation,platelet aggregation,inhibition of platelet aggregation
same,decrease of blood pressure,[5],decrease of blood pressure
